{
  "source": "paper PMC9127750",
  "about": "“Structure-based design of CDC42 effector interaction inhibitors for the treatment of cancer” (Cell reports, 2022)",
  "test_system": "WM3248 melanoma cells, 486 antibodies",
  "experiment": "Reverse phase protein arrays (RPPA)",
  "format": "cell-based, Human",
  "settings": "5 uM, single replicates",
  "excerpt": "Pellets were snap frozen in liquid nitrogen and shipped to MD Anderson Cancer Center core RPPA facility for RPPA analysis (Table S5). Three biological replicates for each sample were generated.\nNomenclatures on the RPPA heatmaps: name_of_antibody.species_of_antibody.status_of_antibody. V - antibody validated; C - validation of antibody in progress; Q - antibody nonspecific; E – under evaluation; antibodies raised in M - mouse, G - goat, R - rabbit, or T - rat.",
  "note": "Several values for one entry are separate records, joined by “and”; a condition that tells them apart may be missing. Equal entries are not always repeated.",
  "data": [
    {"smiles": "CN(C)c1cccc(Nc2cc(-c3ccccc3)nc(C3CCNCC3)n2)c1", "note": "[ARN22089, N1,N1-dimethyl-N3-(6-phenyl-2-(piperidin-4-yl)pyrimidin-4-yl)benzene-1,3-diamine]", "values": [
      {"measurement": "RPPA RIP3.R.C", "value": "0.966 and 1.053 and 1.158"},
      {"measurement": "RPPA RIP.R.C", "value": "1.003 and 0.876 and 0.747"},
      {"measurement": "RPPA RPA32.R.V", "value": "0.852 and 0.696"},
      {"measurement": "RPPA RPA32_pS4_S8.R.C", "value": "1.136 and 0.833 and 0.517"},
      {"measurement": "RPPA RRM1.R.C", "value": "0.879 and 1.059 and 1.047"},
      {"measurement": "RPPA RRM2.R.C", "value": "0.859 and 1.229 and 0.937"},
      {"measurement": "RPPA RSK1.R.V", "value": "1.126 and 0.877 and 0.665"},
      {"measurement": "RPPA RSK.R.C", "value": "1.019 and 0.958"},
      {"measurement": "RPPA Rab11.R.C", "value": "0.952 and 1.156 and 1.116"},
      {"measurement": "RPPA Rab25.R.V", "value": "0.918 and 1.136 and 1.098"},
      {"measurement": "RPPA Rad17_pS645.R.V", "value": "0.999 and 1.251 and 0.988"},
      {"measurement": "RPPA Rad23A.R.C", "value": "0.955 and 1.149 and 0.502"},
      {"measurement": "RPPA Rad50.R.V", "value": "1.003 and 1.194 and 0.770"},
      {"measurement": "RPPA Rad51.R.C", "value": "1.003 and 1.032 and 0.980"},
      {"measurement": "RPPA Raptor.R.V", "value": "0.960 and 1.161 and 0.962"},
      {"measurement": "RPPA Rb.M.Q", "value": "1.194 and 0.869 and 0.844"},
      {"measurement": "RPPA Rb_pS807_S811.R.V", "value": "1.080 and 1.099 and 0.998"},
      {"measurement": "RPPA Rheb.M.C", "value": "1.062 and 0.914 and 0.936"},
      {"measurement": "RPPA Rictor.R.C", "value": "1.000 and 1.032 and 1.026"},
      {"measurement": "RPPA Rictor_pT1135.R.V", "value": "1.014 and 1.199 and 1.106"},
      {"measurement": "RPPA S6.M.V", "value": "1.062 and 0.879 and 1.272"},
      {"measurement": "RPPA S6_pS235_S236.R.V", "value": "1.439 and 1.242 and 1.218"},
      {"measurement": "RPPA S6_pS240_S244.R.V", "value": "1.857 and 2.231 and 1.126"},
      {"measurement": "RPPA SCD.M.V", "value": "1.065 and 0.945 and 1.006"},
      {"measurement": "RPPA SDHA.R.V", "value": "0.933 and 1.191 and 1.108"},
      {"measurement": "RPPA SF2.R.V", "value": "1.031 and 0.941 and 1.112"},
      {"measurement": "RPPA SFRP1.R.V", "value": "1.004 and 0.892 and 0.990"},
      {"measurement": "RPPA SGK1.R.V", "value": "1.163 and 1.199 and 0.933"},
      {"measurement": "RPPA SGK3.R.V", "value": "0.990 and 0.992 and 0.997"},
      {"measurement": "RPPA SHP2.R.V", "value": "1.046 and 0.930 and 1.005"},
      {"measurement": "RPPA SHP.2_pY542.R.C", "value": "0.901 and 0.851"},
      {"measurement": "RPPA SIRPαR.V", "value": "1.213 and 0.860 and 0.910"},
      {"measurement": "RPPA SLC1A5.R.C", "value": "0.927 and 0.907 and 0.859"},
      {"measurement": "RPPA SOD1.M.V", "value": "0.996 and 0.939"},
      {"measurement": "RPPA SOD2.R.V", "value": "1.034 and 0.952 and 1.114"},
      {"measurement": "RPPA SOX7.R.V", "value": "0.983 and 0.930 and 0.848"},
      {"measurement": "RPPA STING.R.V", "value": "0.930 and 1.130 and 0.957"},
      {"measurement": "RPPA Shc_pY317.R.C", "value": "0.667 and 0.896"},
      {"measurement": "RPPA Slfn11.G.C", "value": "0.877 and 0.828 and 0.650"},
      {"measurement": "RPPA Smac.M.Q", "value": "0.952 and 1.016 and 0.799"},
      {"measurement": "RPPA Smad1.R.V", "value": "0.992 and 1.196 and 1.151"},
      {"measurement": "RPPA Smad3.R.V", "value": "0.939 and 1.113 and 0.837"},
      {"measurement": "RPPA Smad4.R.V", "value": "1.058 and 0.905 and 1.133"},
      {"measurement": "RPPA Snail.M.Q", "value": "1.030 and 0.955 and 1.052"},
      {"measurement": "RPPA Sox2.R.V", "value": "0.983 and 0.974 and 1.000"},
      {"measurement": "RPPA Sox17.R.V", "value": "0.873 and 0.902"},
      {"measurement": "RPPA Src.M.V", "value": "1.031 and 1.029 and 1.140"},
      {"measurement": "RPPA Src_pY416.R.V", "value": "1.004 and 0.964"},
      {"measurement": "RPPA Src_pY527.R.V", "value": "0.980 and 1.499"},
      {"measurement": "RPPA Stat1_pY701.R.V", "value": "1.025 and 0.919 and 0.955"},
      {"measurement": "RPPA Stat3.R.C", "value": "1.026 and 1.019"},
      {"measurement": "RPPA Stat3_pY705.R.C", "value": "1.097 and 0.794 and 0.850"},
      {"measurement": "RPPA Stat5a.R.V", "value": "0.973 and 1.401 and 1.115"},
      {"measurement": "RPPA Stathmin.1.R.V", "value": "0.937 and 0.952 and 1.084"},
      {"measurement": "RPPA Syk.M.V", "value": "0.889 and 1.061 and 1.011"},
      {"measurement": "RPPA Synaptophysin.R.C", "value": "1.047 and 0.925 and 1.079"},
      {"measurement": "RPPA TAZ.R.V", "value": "1.033 and 0.986 and 0.848"},
      {"measurement": "RPPA TEAD.R.C", "value": "0.869 and 1.210 and 0.956"},
      {"measurement": "RPPA TFAM.R.V", "value": "0.929 and 1.064 and 1.050"},
      {"measurement": "RPPA TFRC.R.V", "value": "0.850 and 0.994"},
      {"measurement": "RPPA TIGAR.R.V", "value": "1.007 and 1.053"},
      {"measurement": "RPPA TRAP1.M.V", "value": "1.020 and 0.986"},
      {"measurement": "RPPA TRIM24.R.C", "value": "1.055 and 0.901"},
      {"measurement": "RPPA TRIM25.R.C", "value": "0.917 and 1.142 and 1.151"},
      {"measurement": "RPPA TRIP13.R.V", "value": "1.080 and 0.849 and 0.914"},
      {"measurement": "RPPA Tau.M.C", "value": "0.914 and 1.000"},
      {"measurement": "RPPA Transglutaminase.M.V", "value": "1.130 and 0.535"},
      {"measurement": "RPPA level HLA.DQA1.R.V", "value": "0.968 and 1.061 and 0.815"},
      {"measurement": "RPPA level HLA.DR.DP.DQ.DX.R.C", "value": "0.974 and 0.976 and 0.833"},
      {"measurement": "RPPA level HMHA1.R.V", "value": "1.021 and 1.238 and 1.140"},
      {"measurement": "RPPA level HNRNPK.R.V", "value": "0.971 and 0.906"},
      {"measurement": "RPPA level HSP27.M.C", "value": "1.164 and 1.033"},
      {"measurement": "RPPA level HSP27_pS82.R.V", "value": "0.984 and 1.234 and 1.120"},
      {"measurement": "RPPA level HSP60.R.V", "value": "0.905 and 1.108"},
      {"measurement": "RPPA level HSP70.R.C", "value": "0.973 and 0.970"},
      {"measurement": "RPPA level Hexokinase.I.R.C", "value": "0.945 and 0.709"},
      {"measurement": "RPPA level Hexokinase.II.R.V", "value": "1.124 and 0.975 and 0.876"},
      {"measurement": "RPPA level Hif.1αR.C", "value": "1.102 and 1.349 and 0.701"},
      {"measurement": "RPPA level Histone.H3.R.V", "value": "0.982 and 1.330 and 0.576"},
      {"measurement": "RPPA level Histone.H3_pS10.R.V", "value": "0.692 and 0.713"},
      {"measurement": "RPPA level IDO.R.C", "value": "0.970 and 1.199 and 1.031"}
    ]}
  ]
}
